According to patent US12661345B2, “Compositions for the treatment of hypertension” (The George Institute for Global Health, priority 2017, dated 2026):

Test system: participants with migraine
Experiment: Office blood pressure in 12-week double blind randomized 3×3 factorial trial
Format: in vivo, human
Experimental: There was a 4 week screening period and another 4-week post study drug observational period.
There was a 4-week screening period and another 4-week post study drug observational period.
Group 2 received the low-dose BP lowering combination and simvastatin (i.e., telmisartan 20 mg+amlodipine 2.5 mg+simvastatin). Group 3 received the low-dose BP lowering combination and placebo (i.e., telmisartan 20 mg+amlodipine 2.5 mg+placebo). […] Group 9 received double placebo.
Office BP was measured following the recommendations of the Australian National Heart Foundation. Participants were rested in the seated position for 5 minutes, an appropriate cuff size was selected and 3 measurements of BP were recorded using an Omron HEM907 monitor or equivalent validated automated digital BP monitor. Principles of automated office BP measurements were applied whereby the patient was left alone during BP recording.
All analyses of study outcomes were conducted according to the principle of intention-to-treat. The analyses of continuous outcomes such SBP and LDL-cholesterol at 12 weeks was performed using ANCOVA including the treatment arm and baseline values as a covariate. Additional analyses included interim measurements in a longitudinal model including treatment arm, visit, and treatment by visit interaction as well as the baseline measurement. Within-patient correlations were modelled using generalized estimating equations. A similar approach was applied to binary endpoints with log-binomial regression used in place of linear regression. There were also pre-defined subgroup analyses, baseline BP, baseline LDL, gender and age.

[1] = Randomization (baseline, before treatment)
[2] = Week 16 (after 4-week post study drug period)

Q: Which “Diastolic Blood Pressure Mean (SD)” value [1] does the source give for `CCC(C)(C)C(=O)O[C@H]1C[C@@H](C)C=C2C=C[C@H](C)[C@H](CC[C@@H]3C[C@@H](O)CC(=O)O3)[C@H]21` [Simvastatin, simvastatin] here?
A: 9 82.7 (8.43) mmHg

Q: What about the “Diastolic Blood Pressure Q1” value [1] of the same compound?
A: 76.0 mmHg

Q: And the “Diastolic Blood Pressure Q2” value [1]?
A: 81.0 mmHg

Q: And the “Diastolic Blood Pressure Q3” value [1]?
A: 89.0 mmHg

Q: And the “Diastolic Blood Pressure max” value [1]?
A: 96 mmHg

Q: And the “Diastolic Blood Pressure min” value [1]?
A: 72 mmHg

Q: What about the “Systolic Blood Pressure Mean (SD)” value [1] of the same compound?
A: 9 124.2 (13.17) mmHg

Q: What about the “Systolic Blood Pressure Q1” value [1] of the same compound?
A: 114.7 mmHg

Q: And the “Systolic Blood Pressure Q2” value [1]?
A: 123.0 mmHg

Q: What about the “Systolic Blood Pressure Q3” value [1] of the same compound?
A: 132.7 mmHg

Q: And the “Systolic Blood Pressure max” value [1]?
A: 147 mmHg

Q: And the “Systolic Blood Pressure min” value [1]?
A: 107 mmHg

Q: What about the “Diastolic Blood Pressure Mean (SD)” value (Week 4) of the same compound?
A: 9 77.5 (6.98) mmHg

Q: And the “Diastolic Blood Pressure Q1” value (Week 4)?
A: 74.0 mmHg

Q: And the “Diastolic Blood Pressure Q2” value (Week 4)?
A: 77.7 mmHg

Q: And the “Diastolic Blood Pressure Q3” value (Week 4)?
A: 81.3 mmHg

Q: What about the “Diastolic Blood Pressure max” value (Week 4) of the same compound?
A: 90 mmHg

Q: And the “Diastolic Blood Pressure min” value (Week 4)?
A: 68 mmHg

Q: And the “Systolic Blood Pressure Mean (SD)” value (Week 4)?
A: 9 122.2 (14.06) mmHg

Q: What about the “Systolic Blood Pressure Q1” value (Week 4) of the same compound?
A: 113.7 mmHg

Q: And the “Systolic Blood Pressure Q2” value (Week 4)?
A: 119.3 mmHg

Q: What about the “Systolic Blood Pressure Q3” value (Week 4) of the same compound?
A: 126.7 mmHg

Q: What about the “Systolic Blood Pressure max” value (Week 4) of the same compound?
A: 146 mmHg

Q: And the “Systolic Blood Pressure min” value (Week 4)?
A: 102 mmHg

Q: What about the “Diastolic Blood Pressure Mean (SD)” value (Week 8) of the same compound?
A: 9 77.1 (6.07) mmHg

Q: What about the “Diastolic Blood Pressure Q1” value (Week 8) of the same compound?
A: 72.3 mmHg

Q: What about the “Diastolic Blood Pressure Q2” value (Week 8) of the same compound?
A: 78.7 mmHg

Q: What about the “Diastolic Blood Pressure Q3” value (Week 8) of the same compound?
A: 81.7 mmHg

Q: What about the “Diastolic Blood Pressure max” value (Week 8) of the same compound?
A: 84 mmHg

Q: And the “Diastolic Blood Pressure min” value (Week 8)?
A: 68 mmHg

Q: And the “Systolic Blood Pressure Mean (SD)” value (Week 8)?
A: 9 117.0 (11.50) mmHg

Q: What about the “Systolic Blood Pressure Q1” value (Week 8) of the same compound?
A: 111.0 mmHg

Q: What about the “Systolic Blood Pressure Q2” value (Week 8) of the same compound?
A: 115.3 mmHg

Q: What about the “Systolic Blood Pressure Q3” value (Week 8) of the same compound?
A: 124.3 mmHg

Q: And the “Systolic Blood Pressure max” value (Week 8)?
A: 135 mmHg

Q: What about the “Systolic Blood Pressure min” value (Week 8) of the same compound?
A: 95 mmHg

Q: And the “Diastolic Blood Pressure Mean (SD)” value (Week 12 (end of treatment))?
A: 9 78.4 (10.70) mmHg

Q: And the “Diastolic Blood Pressure Q1” value (Week 12 (end of treatment))?
A: 78.3 mmHg

Q: What about the “Diastolic Blood Pressure Q2” value (Week 12 (end of treatment)) of the same compound?
A: 81.3 mmHg

Q: What about the “Diastolic Blood Pressure Q3” value (Week 12 (end of treatment)) of the same compound?
A: 85.7 mmHg

Q: What about the “Diastolic Blood Pressure max” value (Week 12 (end of treatment)) of the same compound?
A: 87 mmHg

Q: What about the “Diastolic Blood Pressure min” value (Week 12 (end of treatment)) of the same compound?
A: 54 mmHg

Q: And the “Systolic Blood Pressure Mean (SD)” value (Week 12 (end of treatment))?
A: 9 117.8 (14.06) mmHg

Q: And the “Systolic Blood Pressure Q1” value (Week 12 (end of treatment))?
A: 111.0 mmHg

Q: What about the “Systolic Blood Pressure Q2” value (Week 12 (end of treatment)) of the same compound?
A: 120.0 mmHg

Q: What about the “Systolic Blood Pressure Q3” value (Week 12 (end of treatment)) of the same compound?
A: 125.7 mmHg

Q: What about the “Systolic Blood Pressure max” value (Week 12 (end of treatment)) of the same compound?
A: 135 mmHg

Q: What about the “Systolic Blood Pressure min” value (Week 12 (end of treatment)) of the same compound?
A: 88 mmHg

Q: And the “Change in DBP from baseline to 12 weeks Mean (SD)” value (Week 12 v/s Baseline)?
A: 9 −4.3 (8.95) mmHg

Q: And the “Change in DBP from baseline to 12 weeks Q1” value (Week 12 v/s Baseline)?
A: −8.7 mmHg

Q: And the “Change in DBP from baseline to 12 weeks Q2” value (Week 12 v/s Baseline)?
A: −3.7 mmHg

Q: What about the “Change in DBP from baseline to 12 weeks Q3” value (Week 12 v/s Baseline) of the same compound?
A: −0.7 mmHg

Q: And the “Change in DBP from baseline to 12 weeks max” value (Week 12 v/s Baseline)?
A: 9 mmHg

Q: What about the “Change in DBP from baseline to 12 weeks min” value (Week 12 v/s Baseline) of the same compound?
A: −22 mmHg

Q: And the “Change in SBP from baseline to 12 weeks Mean (SD)” value (Week 12 v/s Baseline)?
A: 9 −6.4 (8.24) mmHg

Q: What about the “Change in SBP from baseline to 12 weeks Q1” value (Week 12 v/s Baseline) of the same compound?
A: −12.0 mmHg

Q: And the “Change in SBP from baseline to 12 weeks Q2” value (Week 12 v/s Baseline)?
A: −4.7 mmHg

Q: And the “Change in SBP from baseline to 12 weeks Q3” value (Week 12 v/s Baseline)?
A: 0.3 mmHg

Q: What about the “Change in SBP from baseline to 12 weeks max” value (Week 12 v/s Baseline) of the same compound?
A: 5 mmHg

Q: And the “Change in SBP from baseline to 12 weeks min” value (Week 12 v/s Baseline)?
A: −19 mmHg

Q: And the “Diastolic Blood Pressure Mean (SD)” value [2]?
A: 9 80.5 (7.29) mmHg

Q: What about the “Diastolic Blood Pressure Q1” value [2] of the same compound?
A: 74.3 mmHg

Q: What about the “Diastolic Blood Pressure Q2” value [2] of the same compound?
A: 80.7 mmHg

Q: What about the “Diastolic Blood Pressure Q3” value [2] of the same compound?
A: 87.0 mmHg

Q: What about the “Diastolic Blood Pressure max” value [2] of the same compound?
A: 90 mmHg

Q: What about the “Diastolic Blood Pressure min” value [2] of the same compound?
A: 71 mmHg

Q: And the “Systolic Blood Pressure Mean (SD)” value [2]?
A: 9 118.3 (10.11) mmHg

Q: And the “Systolic Blood Pressure Q1” value [2]?
A: 109.7 mmHg

Q: What about the “Systolic Blood Pressure Q2” value [2] of the same compound?
A: 116.7 mmHg

Q: What about the “Systolic Blood Pressure Q3” value [2] of the same compound?
A: 123.0 mmHg

Q: What about the “Systolic Blood Pressure max” value [2] of the same compound?
A: 136 mmHg

Q: And the “Systolic Blood Pressure min” value [2]?
A: 107 mmHg
